Results on 11 molecules are retold here after US20170114049A1, “2,5-DISUBSTITUTED CYCLOPENTANE CARBOXYLIC ACIDS FOR THE TREATMENT OF RESPIRATORY TRACT DISEASES” (BAYER PHARMA AKTIENGESELLSCHAFT, priority 2014, published 2017).

What is called IC50 is the concentration needed to halve the response being measured. Usually solubility stands for the dissolved amount per volume that the medium holds. Read a low solubility as little dissolved substance. Broadly, the Solubility is the dissolved amount per volume that the medium holds.

Values after ≈ are worked out from the molar mass of the structure shown.

The target in data set [1] is T1, MMP-2 (Homo sapiens, UniProt P08253).
T1 construct: purchased R&D Systems 902-MP
T1 sequence (P08253 110-660): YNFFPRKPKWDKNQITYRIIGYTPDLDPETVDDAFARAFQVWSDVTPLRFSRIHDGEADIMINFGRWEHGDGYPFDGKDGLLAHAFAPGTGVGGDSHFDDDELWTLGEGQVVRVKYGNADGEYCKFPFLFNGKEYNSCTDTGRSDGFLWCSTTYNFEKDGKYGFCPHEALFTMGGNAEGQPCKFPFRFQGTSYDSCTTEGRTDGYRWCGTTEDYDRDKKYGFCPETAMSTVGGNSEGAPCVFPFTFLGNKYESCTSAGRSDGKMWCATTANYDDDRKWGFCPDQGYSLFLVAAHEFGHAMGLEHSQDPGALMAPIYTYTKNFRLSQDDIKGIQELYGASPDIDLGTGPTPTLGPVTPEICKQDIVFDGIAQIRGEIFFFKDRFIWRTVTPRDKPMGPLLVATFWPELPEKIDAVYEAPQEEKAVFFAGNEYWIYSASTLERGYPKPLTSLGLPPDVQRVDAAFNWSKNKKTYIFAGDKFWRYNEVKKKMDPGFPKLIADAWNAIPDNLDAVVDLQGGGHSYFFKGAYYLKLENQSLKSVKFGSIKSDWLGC
Briefly: In vitro MMP-2 inhibition test. In kind it is biochemical. The source says: (§1) The MMP-mediated amidolytic cleavage of a suitable peptide substrate leads to an increase in fluorescent light here too. The signal intensity of the fluorescent light is directly proportional to the enzyme activity. The active concentration of a test compound at which half the enzyme is inhibited (50% signal intensity of the fluorescent light) is reported as the […].
(§2) Recombinant MMP-2 (from R&D Systems, 902-MP) is chemically activated in accordance with the manufacturer's instructions using APMA. 1 μl of the test compound to be analysed (as a solution in DMSO, suitable concentrations, for example, 1 nM to 30 μM) is pipetted into 24 μl of activated enzyme (final concentration, for example, 2 nM) in reaction buffer (50 mM Tris/HCl pH 7.5, 10 mM CaCl2, 150 mM NaCl, 0.05% Brij®-35) in a white 384-hole microtiter plate (MTP). The enzymatic reaction is started by adding the intramolecularly quenched Mca-Pro-Leu-Gly-Leu-Dpa(Dnp)-Ala-Arg-NH2 substrate (final concentration, for example, 10 μM; R&D Systems, ES-001), so as to result in a total test volume of 50 μl. The course of the MMP-2 reaction is measured by measuring the fluorescence intensity (excitation 320 nm, emission 410 nm) over a suitable period of time (for example over 120 min at a temperature of 32° C.).

A short description of data set [2]: Determination of solubility in PBS buffer pH 6.5. Particulars: PBS buffer pH 6.5, 1% DMSO, room temperature; for solubility at 24 h: PBS buffer, pH 6.5, aqueous buffer, kinetic from dmso stock.
Procedure: The test substance is dissolved in DMSO. An aliquot is taken from this solution and introduced into PBS buffer pH 6.5 (DMSO content: 1%). This solution/suspension is agitated at room temperature for 24 h. After ultracentrifugation at 114000 g for 30 min, the supernatant is removed, diluted with acetonitrile/water 8:2 and analysed by LC-MSMS. Quantification is effected by means of a five-point calibration curve of the test compound in DMSO.
Data set [3] addresses T2, human macrophage elastase (HME/hMMP-12) (Homo sapiens, UniProt P39900).
T2 construct: 0.5 nM HME; purchased R&D Systems 917-MP
Put plainly: In vitro HME inhibition test in the presence of serum albumin (BSA) in the reaction buffer. The format is biochemical. Particulars: presence of serum albumin (BSA) 2% (w/w). From the text:
This test corresponds to the standard HME inhibition test described above, except using a modified reaction buffer. This reaction buffer additionally contains bovine serum albumin (BSA, fatty acid-free, A6003, from Sigma-Aldrich) of final concentration 2% (w/w), which corresponds to about half the physiological serum albumin content.

The target in data set [4] is T3, mouse MMP-2 (Mus musculus, UniProt P33434).
T3 construct: purchased R&D Systems 924-MP
T3 sequence (P33434 110-662): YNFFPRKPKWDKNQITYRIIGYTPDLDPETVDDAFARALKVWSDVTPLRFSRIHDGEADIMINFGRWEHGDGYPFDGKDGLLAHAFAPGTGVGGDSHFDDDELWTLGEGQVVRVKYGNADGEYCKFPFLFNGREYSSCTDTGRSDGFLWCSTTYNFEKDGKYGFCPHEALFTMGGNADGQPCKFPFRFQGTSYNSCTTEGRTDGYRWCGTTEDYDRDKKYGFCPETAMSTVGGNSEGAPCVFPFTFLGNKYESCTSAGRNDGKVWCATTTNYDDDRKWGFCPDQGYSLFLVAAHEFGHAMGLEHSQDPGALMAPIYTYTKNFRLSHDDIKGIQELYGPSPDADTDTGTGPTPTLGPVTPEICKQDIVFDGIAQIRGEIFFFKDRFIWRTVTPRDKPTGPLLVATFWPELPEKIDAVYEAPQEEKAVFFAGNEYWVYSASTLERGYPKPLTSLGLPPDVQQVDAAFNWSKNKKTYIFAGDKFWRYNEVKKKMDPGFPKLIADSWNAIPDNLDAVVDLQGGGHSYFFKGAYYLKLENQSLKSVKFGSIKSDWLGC
Put plainly: In vitro mouse MMP-2 inhibition test. The format is biochemical.
From the text: as §1
as §2, with “Recombinant mouse” for “Recombinant”, “Systems, 924-MP)” for “Systems, 902-MP)”, “example, 0.1” for “example, 2”

The target of data set [5] is T4, MMP-3 (Homo sapiens, UniProt P08254).
T4 construct: purchased R&D Systems 513-MP
T4 sequence (P08254 100-477): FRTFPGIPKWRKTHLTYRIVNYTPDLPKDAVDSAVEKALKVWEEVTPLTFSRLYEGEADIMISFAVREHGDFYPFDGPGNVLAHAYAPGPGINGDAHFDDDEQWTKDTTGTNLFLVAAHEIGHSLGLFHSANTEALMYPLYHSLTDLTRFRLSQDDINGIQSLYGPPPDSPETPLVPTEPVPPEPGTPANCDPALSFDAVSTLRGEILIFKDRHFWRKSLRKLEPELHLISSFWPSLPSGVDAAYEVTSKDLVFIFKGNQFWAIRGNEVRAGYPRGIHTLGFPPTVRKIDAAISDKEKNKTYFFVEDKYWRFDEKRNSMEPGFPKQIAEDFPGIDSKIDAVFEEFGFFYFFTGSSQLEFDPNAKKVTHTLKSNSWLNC
Put plainly: In vitro MMP-3 inhibition test. In kind it is biochemical.
From the text: as §1
as §2, with “MMP-3” for “MMP-2”, “513-MP)” for “902-MP)”, “Mca-Arg-Pro-Lys-Pro-Val-Glu-Nval-Trp-Arg-Lys(Dnp)-NH2” for “Mca-Pro-Leu-Gly-Leu-Dpa(Dnp)-Ala-Arg-NH2”, “ES-002),” for “ES-001),”

T2 sequence (P39900 106-470): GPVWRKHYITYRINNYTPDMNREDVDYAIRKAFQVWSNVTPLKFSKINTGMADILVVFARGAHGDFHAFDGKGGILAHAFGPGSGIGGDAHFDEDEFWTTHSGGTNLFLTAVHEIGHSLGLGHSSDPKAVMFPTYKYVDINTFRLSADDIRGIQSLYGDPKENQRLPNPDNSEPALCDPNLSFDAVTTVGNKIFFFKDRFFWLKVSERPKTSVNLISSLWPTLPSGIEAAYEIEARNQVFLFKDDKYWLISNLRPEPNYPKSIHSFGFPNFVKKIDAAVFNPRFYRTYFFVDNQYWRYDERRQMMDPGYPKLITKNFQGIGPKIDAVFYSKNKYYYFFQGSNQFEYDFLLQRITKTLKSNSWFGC

Regarding `O=C(O)[C@@H]1[C@@H](Cn2nnc3ccccc3c2=O)CC[C@H]1C(=O)c1ccc(OCCC2CCOCC2)cc1` (single isomer, unassigned) [Example 5, (+)-(1RS,2SR,5RS)-2-[(4-Oxo-1,2,3-benzotriazin-3(4H)-yl)methyl]-5-{4-[2-(tetrahydro-2H-pyran-4-yl)ethoxy]benzoyl}cyclopentanecarboxylic acid], the half-inhibitory concentration (IC50) was determined as 44 nM in data set [1], 4.06 nM in data set [3], 45 nM in data set [4] and 360 nM in data set [5]. In data set [2], this molecule displayed a solubility at 24 h of 338 µg/mL (≈ 669 µM).
As to `O=C(O)[C@H]1[C@H](Cn2nnc3ccc(C(F)(F)F)cc3c2=O)CC[C@@H]1C(=O)c1ccc(OCC2CCOCC2)cc1` (racemic) [Example 7, (+/−)-(1RS,2SR,5RS)-2-{[4-Oxo-6-(trifluoromethyl)-1,2,3-benzotriazin-3(4H)-yl]methyl}-5-[4-(tetrahydro-2H-pyran-4-ylmethoxy)benzoyl]cyclopentanecarboxylic acid], the IC50 in data set [1] is 380 nM; in data set [5], 190 nM.
For the molecule `O=C(O)[C@H]1[C@H](Cn2nnc3ccc(C(F)(F)F)cc3c2=O)CC[C@@H]1C(=O)c1ccc(OCCC2CCOCC2)cc1` (stereo in doubt) [Example 10, (+/−)-(1RS ,2S R,5RS)-2-{[4-Oxo-6-(trifluoromethyl)-1,2,3-benzotriazin-3(4H)-yl]methyl}-5-{4-[2-(tetrahydro-2H-pyran-4-yl)ethoxy]benzoyl}cyclopentanecarboxylic acid], the results for the IC50 in data set [1], in data set [4] and in data set [5] were 220 nM, 300 nM and 120 nM, respectively. Moreover, in data set [2], the solubility at 24 h worked out at 33.4 µg/mL (≈ 58.2 µM).
Regarding `Cc1ccc2nnn(C[C@@H]3CC[C@H](C(=O)c4ccc(OCCC5CCOCC5)cc4)[C@H]3C(=O)O)c(=O)c2c1` (racemic) [Example 19, (+/−)-(1RS,2SR,5RS)-2-[(6-Methyl-4-oxo-1,2,3-benzotriazin-3(4H)-yl)methyl]-5-{4-[2-(letrahydro-2H-pyran-4-yl)ethoxy]benzoyl}cyclopentanecarboxylic acid], the half-maximal inhibitory concentration (IC50) in data set [1] amounted to 930 nM; in data set [3] it was 32 nM; in data set [4], 840 nM; in data set [5] it was 1400 nM. The molecule further yielded a solubility at 24 h in data set [2] of 17 µg/mL (≈ 32.7 µM).
Take `O=C(O)[C@@H]1[C@@H](Cn2nnc3ccccc3c2=O)CC[C@H]1C(=O)c1ccc(OCC2CCOCC2)cc1` (stereo in doubt) [Example 2, (+)-(1RS,2SR,5RS)-2-[(4-Oxo-1,2,3-benzotriazin-3(4H)-yl)methyl]-5-[4-(tetrahydro-2H-pyran-4-ylmethoxy)benzoyl]cyclopentanecarboxylic acid]: the IC50 in data set [1] came out at 60 nM; in data set [3], 6.71 nM; in data set [4] it was 58 nM; in data set [5], 710 nM.
With “(+)-(1RS,2SR,5RS)-2-{[4-Oxo-6-(trifluoromethyl)-1,2,3-benzotriazin-3(4H)-yl]methyl}-5-[4-(tetra-hydro-2H-pyran-4-ylmethoxy)benzoyl]cyclopentanecarboxylic acid [Example 8]”, the half-maximal inhibitory concentration (IC50) in data set [1] is 140 nM; in data set [3], 2.45 nM; in data set [5], 100 nM. Moreover, in data set [2] (24 h), the Solubility turned out to be 4.5 µg/mL.
On to `Cc1ccc2nnn(C[C@H]3CC[C@@H](C(=O)c4ccc(OCCC5CCOCC5)cc4)[C@@H]3C(=O)O)c(=O)c2c1` (single isomer, unassigned) [Example 20, (+)-(1RS,2SR,5RS)-2-[(6-Methyl-4-oxo-1,2,3-benzotriazin-3(4H)-yl)methyl]-5-{4-[2-(tetrahydro-2H-pyran-4-yl)ethoxy]benzoyl}cyclopentanecarboxylic acid], for which the half-maximal inhibitory concentration (IC50) came out at 300 nM in data set [1], 12.2 nM in data set [3], 340 nM in data set [4] and 440 nM in data set [5]. Further, the concentration in solution in data set [2] (solubility at 24 h) was 425 µg/mL (≈ 818 µM).
Regarding `O=C(O)[C@H]1[C@H](Cn2nnc3ccccc3c2=O)CC[C@@H]1C(=O)c1ccc(OCCC2CCOCC2)cc1` (stereo in doubt) [Example 4, (+/−)-(1RS,2SR,5RS)-2-[(4-Oxo-1,2,3-benzotriazin-3(4H)-yl)methyl]-5-{4-[2-(tetrahydro-2H-pyran-4-yl)ethoxy]benzoyl}cyclopentanecarboxylic acid], the IC50 in data set [1] is 360 nM; in data set [3], 37.3 nM; in data set [4], 490 nM. This molecule also displayed a solubility at 24 h in data set [2] of 51.4 µg/mL (≈ 102 µM).
With `O=C(O)[C@@H]1[C@@H](Cn2nnc3ccc(C(F)(F)F)cc3c2=O)CC[C@H]1C(=O)c1ccc(OCCC2CCOCC2)cc1` (single isomer, unassigned) [Example 11, (+)-(1RS,2SR,5RS)-2-{[4-Oxo-6-(trifluoromethyl)-1,2,3-benzotriazin-3(4H)-yl]methyl}-5-{4-[2-(tetrahydro-2H-pyran-4-yl)ethoxy]benzoyl}cyclopentanecarboxylic acid], the IC50 in data set [1] is 510 nM; in data set [3], 39.2 nM; in data set [4], 640 nM; in data set [5], 260 nM. The same molecule returned a solubility at 24 h in data set [2] of 210 µg/mL (≈ 366 µM).
Regarding `O=C(O)[C@@H]1[C@@H](Cn2nnc3ccc(C(F)(F)F)cc3c2=O)CC[C@H]1C(=O)c1ccc(SCC2CCOCC2)cc1` (single isomer, unassigned) [Example 15, (+)-(1RS,2SR,5RS)-2-{[4-Oxo-6-(trifluoromethyl)-1,2,3-benzotriazin-3(4H)-yl]methyl}-5-{4-[(tetrahydro-2H-pyran-4-ylmethyl)sulphanyl]benzoyl}cyclopentanecarboxylic acid], the results for the IC50 in data set [1], in data set [3] and in data set [5] were 330 nM, 16 nM and 95 nM, respectively.
On to `O=C(O)[C@H]1[C@H](Cn2nnc3ccccc3c2=O)CC[C@@H]1C(=O)c1ccc(OCC2CCOCC2)cc1` (stereo in doubt) [Example 1, (+/−)-(1RS,2SR,5RS)-2-[(4-Oxo-1,2,3-benzotriazin-3(4H)-yl)methyl]-5-[4-(tetrahydro-2H-pyran-4-ylmethoxy)benzoyl]cyclopentanecarboxylic acid], for which the IC50 is 140 nM in data set [1], 6.45 nM in data set [3], 170 nM in data set [4] and 1100 nM in data set [5]. In data set [2], this molecule returned a solubility at 24 h of 52.2 µg/mL (≈ 106 µM).
